Legend:
Assay in all cases: in vitro susceptibility, MIC by mini broth dilution
Format in all cases: cell-based
[1] = tested on: Streptococcus equines CVCC556; settings: strain CVCC556
Summary of the method: (§1)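 Read-out is the minimum inhibitory concentration, measured by mini broth dilution following the US NCCLS approved standard, with 11 two-fold compound dilutions in DMSO and a 1:200-diluted inoculum.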

[2] = tested on: Haemophilus parasuis
Summary of the method: as §1

[3] = tested on: Pasteurella multocida CVCC399; settings: strain CVCC399
Summary of the method: as §1

[4] = tested on: Actinobacillus pleuropneumoniae CVCC262; settings: strain CVCC262
Summary of the method: as §1

[5] = tested on: Staphylococcus aureus CVCC26003; settings: strain CVCC26003
Summary of the method: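 S. aureus CVCC26003 was revived and subcultured twice, 20 h each at 35° C, on solid medium, then diluted 1:200 in CAMHB liquid medium. Compounds received an 11-step two-fold DMSO dilution in parallel duplicate rows. MIC was read by mini broth dilution per NCCLS guidance.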

Structure (SMILES) | MIC values, Streptococcus equines CVCC556 [1] | MIC values, Haemophilus parasuis [2] | MIC values, Pasteurella multocida CVCC399 [3] | MIC values, Actinobacillus pleuropneumoniae CVCC262 [4] | MIC values, Staphylococcus aureus CVCC26003 [5]
CCCN1C[C@H](C)[C@@H](O)[C@](C)(O)[C@@H](CC)OC(=O)[C@H](C)[C@@H](O[C@H]2C[C@@](C)(OC)[C@](O)(CNC(CC)CO)[C@H](C)O2)[C@H](C)[C@@H](O[C@@H]2O[C@H](C)C[C@H](N(C)C)[C@H]2O)[C@](C)(O)C[C@H]1C (stereo partly drawn) [syzx-151] | 0.25 ug/mi | 0.25 ug/mi | 0.5 ug/mi | 0.25 ug/mi | 0.25 ug/mi
CCCN1CC(C)C(O)C(C)(O)C(CC)OC(=O)C(C)C(OC2CC(C)(OC)C(O)(CNCCOS(=O)(=O)O)C(C)O2)C(C)C(OC2OC(C)CC(N(C)C)C2O)C(C)(O)CC1C (stereo not drawn) [syzx-153] | 0.25 ug/mi | 0.25 ug/mi | 1 ug/mi | 0.25 ug/mi | 0.25 ug/mi
CCCN1C[C@H](C)[C@@H](O)[C@](C)(O)[C@@H](CC)OC(=O)[C@H](C)[C@@H](O[C@H]2C[C@@](C)(OC)[C@](O)(CNCc3ccc(F)c(F)c3)[C@H](C)O2)[C@H](C)[C@@H](O[C@@H]2O[C@H](C)C[C@H](N(C)C)[C@H]2O)[C@](C)(O)C[C@H]1C [syzx-154] | 0.5 ug/mi | 0.25 ug/mi | 0.5 ug/mi | 0.25 ug/mi | 0.25 ug/mi
CCCN1C[C@H](C)[C@@H](O)[C@](C)(O)[C@@H](CC)OC(=O)[C@H](C)[C@@H](O[C@H]2C[C@@](C)(OC)[C@](O)(CNCc3cc(F)cc(F)c3)[C@H](C)O2)[C@H](C)[C@@H](O[C@@H]2O[C@H](C)C[C@H](N(C)C)[C@H]2O)[C@](C)(O)C[C@H]1C [syzx-155] | 0.25 ug/mi | 0.25 ug/mi | 0.5 ug/mi | 0.25 ug/mi | 0.25 ug/mi
CCCN1C[C@H](C)[C@@H](O)[C@](C)(O)[C@@H](CC)OC(=O)[C@H](C)[C@@H](O[C@H]2C[C@@](C)(OC)[C@](O)(CNCCOC)[C@H](C)O2)[C@H](C)[C@@H](O[C@@H]2O[C@H](C)C[C@H](N(C)C)[C@H]2O)[C@](C)(O)C[C@H]1C [syzx-158] | 0.25 ug/mi | 4 ug/mi | 2 ug/mi | 4 ug/mi | 2 ug/mi
CCCN1C[C@H](C)[C@@H](O)[C@](C)(O)[C@@H](CC)OC(=O)[C@H](C)[C@@H](O[C@H]2C[C@@](C)(OC)[C@](O)(CNC(C)CCCN(CC)CC)[C@H](C)O2)[C@H](C)[C@@H](O[C@@H]2O[C@H](C)C[C@H](N(C)C)[C@H]2O)[C@](C)(O)C[C@H]1C (stereo partly drawn) [syzx-159] | 0.25 ug/mi | 0.25 ug/mi | 0.5 ug/mi | 0.25 ug/mi | 0.5 ug/mi
CCCN1C[C@H](C)[C@@H](O)[C@](C)(O)[C@@H](CC)OC(=O)[C@H](C)[C@@H](O[C@H]2C[C@@](C)(OC)[C@](O)(CNCCc3ccc(S(N)(=O)=O)cc3)[C@H](C)O2)[C@H](C)[C@@H](O[C@@H]2O[C@H](C)C[C@H](N(C)C)[C@H]2O)[C@](C)(O)C[C@H]1C [syzx-161] | 0.25 ug/mi | 0.25 ug/mi | 0.5 ug/mi | 0.25 ug/mi | 0.25 ug/mi
C#CC=C(C)NC[C@]1(O)[C@H](C)O[C@@H](O[C@H]2[C@H](C)[C@@H](O[C@@H]3O[C@H](C)C[C@H](N(C)C)[C@H]3O)[C@](C)(O)C[C@@H](C)N(CCC)C[C@H](C)[C@@H](O)[C@](C)(O)[C@@H](CC)OC(=O)[C@@H]2C)C[C@@]1(C)OC [syzx-162] | 0.25 ug/mi | 0.25 ug/mi | 1 ug/mi | 0.25 ug/mi | 0.25 ug/mi
CCCC(C)NC[C@]1(O)[C@H](C)O[C@@H](O[C@H]2[C@H](C)[C@@H](O[C@@H]3O[C@H](C)C[C@H](N(C)C)[C@H]3O)[C@](C)(O)C[C@@H](C)N(CCC)C[C@H](C)[C@@H](O)[C@](C)(O)[C@@H](CC)OC(=O)[C@@H]2C)C[C@@]1(C)OC (stereo partly drawn) [syzx-163] | 0.25 ug/mi | 0.25 ug/mi | 1 ug/mi | 0.25 ug/mi | 0.25 ug/mi
CCCN1C[C@H](C)[C@@H](O)[C@](C)(O)[C@@H](CC)OC(=O)[C@H](C)[C@@H](O[C@H]2C[C@@](C)(OC)[C@](O)(CNCCc3ccncc3)[C@H](C)O2)[C@H](C)[C@@H](O[C@@H]2O[C@H](C)C[C@H](N(C)C)[C@H]2O)[C@](C)(O)C[C@H]1C [syzx-164] | 0.5 ug/mi | 0.25 ug/mi | 2 ug/mi | 0.25 ug/mi | 0.25 ug/mi
CCCN1C[C@H](C)[C@@H](O)[C@](C)(O)[C@@H](CC)OC(=O)[C@H](C)[C@@H](O[C@H]2C[C@@](C)(OC)[C@](O)(CNCc3cnc(C)cn3)[C@H](C)O2)[C@H](C)[C@@H](O[C@@H]2O[C@H](C)C[C@H](N(C)C)[C@H]2O)[C@](C)(O)C[C@H]1C [syzx-165] | 0.25 ug/mi | 0.25 ug/mi | 1 ug/mi | 0.25 ug/mi | 0.25 ug/mi
CCCN1C[C@H](C)[C@@H](O)[C@](C)(O)[C@@H](CC)OC(=O)[C@H](C)[C@@H](O[C@H]2C[C@@](C)(OC)[C@](O)(CNCC3CCCCC3)[C@H](C)O2)[C@H](C)[C@@H](O[C@@H]2O[C@H](C)C[C@H](N(C)C)[C@H]2O)[C@](C)(O)C[C@H]1C [syzx-167] | 0.25 ug/mi | 2 ug/mi | 4 ug/mi | 2 ug/mi | 2 ug/mi
CCCN1C[C@H](C)[C@@H](O)[C@](C)(O)[C@@H](CC)OC(=O)[C@H](C)[C@@H](O[C@H]2C[C@@](C)(OC)[C@](O)(CNc3ccccc3F)[C@H](C)O2)[C@H](C)[C@@H](O[C@@H]2O[C@H](C)C[C@H](N(C)C)[C@H]2O)[C@](C)(O)C[C@H]1C [syzx-168] | 0.25 ug/mi | 0.25 ug/mi | 1 ug/mi | 0.25 ug/mi | 0.25 ug/mi
CCCN1C[C@H](C)[C@@H](O)[C@](C)(O)[C@@H](CC)OC(=O)[C@H](C)[C@@H](O[C@H]2C[C@@](C)(OC)[C@](O)(CNCCCN3CCOCC3)[C@H](C)O2)[C@H](C)[C@@H](O[C@@H]2O[C@H](C)C[C@H](N(C)C)[C@H]2O)[C@](C)(O)C[C@H]1C [syzx-169] | 0.25 ug/mi | 0.25 ug/mi | 0.5 ug/mi | 0.25 ug/mi | 0.25 ug/mi
CCCN1CC(C)C(O)C(C)(O)C(CC)OC(=O)C(C)C(OC2CC(C)(OC)C(O)(CNNc3ccccc3)C(C)O2)C(C)C(OC2OC(C)CC(N(C)C)C2O)C(C)(O)CC1C (stereo not drawn) [syzx-173] | 0.25 ug/mi | 1 ug/mi | 4 ug/mi | 1 ug/mi | 2 ug/mi
CCCN1C[C@H](C)[C@@H](O)[C@](C)(O)[C@@H](CC)OC(=O)[C@H](C)[C@@H](O[C@H]2C[C@@](C)(OC)[C@](O)(CNCCc3c[nH]c4ccccc34)[C@H](C)O2)[C@H](C)[C@@H](O[C@@H]2O[C@H](C)C[C@H](N(C)C)[C@H]2O)[C@](C)(O)C[C@H]1C [syzx-174] | 0.25 ug/mi | 2 ug/mi | 8 ug/mi | 4 ug/mi | 4 ug/mi
CCCN1C[C@H](C)[C@@H](O)[C@](C)(O)[C@@H](CC)OC(=O)[C@H](C)[C@@H](O[C@H]2C[C@@](C)(OC)[C@](O)(CNCCCCl)[C@H](C)O2)[C@H](C)[C@@H](O[C@@H]2O[C@H](C)C[C@H](N(C)C)[C@H]2O)[C@](C)(O)C[C@H]1C [syzx-175] | 0.5 ug/mi | 0.25 ug/mi | 0.5 ug/mi | 0.25 ug/mi | 0.5 ug/mi
CCCN1C[C@H](C)[C@@H](O)[C@](C)(O)[C@@H](CC)OC(=O)[C@H](C)[C@@H](O[C@H]2C[C@@](C)(OC)[C@](O)(CNc3cc(OC)cc(OC)c3)[C@H](C)O2)[C@H](C)[C@@H](O[C@@H]2O[C@H](C)C[C@H](N(C)C)[C@H]2O)[C@](C)(O)C[C@H]1C [syzx-176] | 0.25 ug/mi | 0.5 ug/mi | 2 ug/mi | 0.25 ug/mi | 0.5 ug/mi

Reference: patent US9765105B2, “Macrolide compound” (Pulike Biological Engineering, Inc., priority 2013, dated 2017)
